Laboratory results from article PMC7934925, “A GRM7 mutation associated with developmental delay reduces mGlu7 expression and produces neurological phenotypes” (JCI Insight, 2021).

Tests used:
mGlu7 (HA-mGlu7-WT) = biological target: T1, mGlu7 (HA-mGlu7-WT) (Homo sapiens, UniProt Q14831); test: thallium flux assay (GIRK) in HEK cells stably expressing the receptor, agonist concentration-response; format: cell-based
T1 construct: gene GRM7; full-length human mGlu7a isoform (NM_000844.4), HA-tagged, stably expressed in HEK/GIRK cells
T1 sequence (Q14831 35-915): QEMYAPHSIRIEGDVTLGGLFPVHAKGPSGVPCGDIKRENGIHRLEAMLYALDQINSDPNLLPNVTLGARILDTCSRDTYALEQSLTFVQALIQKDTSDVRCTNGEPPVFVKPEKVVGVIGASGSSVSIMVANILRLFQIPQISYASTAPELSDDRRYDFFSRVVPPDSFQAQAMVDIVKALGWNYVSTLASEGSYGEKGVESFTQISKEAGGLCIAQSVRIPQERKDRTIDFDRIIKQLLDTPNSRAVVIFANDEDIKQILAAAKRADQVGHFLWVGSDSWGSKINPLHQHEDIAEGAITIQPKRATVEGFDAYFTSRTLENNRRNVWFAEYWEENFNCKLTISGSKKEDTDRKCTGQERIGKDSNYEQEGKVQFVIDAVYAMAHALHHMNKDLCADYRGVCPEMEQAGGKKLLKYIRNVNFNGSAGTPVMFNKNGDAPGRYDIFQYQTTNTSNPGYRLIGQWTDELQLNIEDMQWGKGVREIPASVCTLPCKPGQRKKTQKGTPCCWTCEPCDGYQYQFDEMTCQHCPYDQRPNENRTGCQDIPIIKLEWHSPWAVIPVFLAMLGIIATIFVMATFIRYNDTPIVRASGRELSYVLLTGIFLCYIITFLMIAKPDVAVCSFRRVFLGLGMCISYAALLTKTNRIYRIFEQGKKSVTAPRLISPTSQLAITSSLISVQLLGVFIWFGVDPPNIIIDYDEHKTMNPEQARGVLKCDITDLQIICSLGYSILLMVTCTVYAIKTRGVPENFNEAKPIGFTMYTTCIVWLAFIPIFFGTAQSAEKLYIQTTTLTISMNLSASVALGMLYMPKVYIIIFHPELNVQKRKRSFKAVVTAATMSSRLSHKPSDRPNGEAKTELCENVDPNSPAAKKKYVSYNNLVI

mGlu7 (HA-mGlu7-I154T) = biological target: T2, mGlu7 (HA-mGlu7-I154T) (Homo sapiens, UniProt Q14831, I154T); test: as above; format: cell-based
T2 construct: gene GRM7; full-length human mGlu7a isoform, HA-tagged, I154T, stably expressed in HEK/GIRK cells
T2 sequence (Q14831 35-915 I154T): as the sequence (Q14831 35-915) above, with I120T counted along it

Q: Which results are given for `N[C@@H](CCP(=O)(O)O)C(=O)O` [L-AP4]?
A: EC50 (mGlu7 (HA-mGlu7-WT)): 176 µM; EC50 (mGlu7 (HA-mGlu7-I154T)): 540 µM
